Measurements reported in patent US20230192617A1, “AZABICYCLIC(THIO)AMIDES AS FUNGICIDAL COMPOUNDS” (Bayer CropScience Aktiengesellschaft, priority 2020, published 2023).

Tests used:
[1] = Measurement of Log P values by HPLC on reversed phase columns (EEC directive 79/831 Annex V.A8); type: physicochemical; conditions: reversed phase HPLC column, method [a]: LC-UV, acidic range, 0.1% formic acid in water and acetonitrile as eluent
Summary of the method: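 Log P derived from retention on reversed-phase columns (EEC directive 79/831 Annex V.A8), LC-UV, acetonitrile gradient 10% to 95% against water containing 0.1% formic acid, 0.001 M ammonium acetate, or 0.1% phosphoric acid; several values per method separated by "+".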

[2] = system: Alternaria brassicae; assay: In vivo preventive test on Alternaria brassicae (leaf spot on radish or cabbage); conditions: 500 ppm of active ingredient, preventive spray on radish or cabbage, evaluated 3 to 4 days after inoculation, read-out: efficacy
Summary of the method: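 Protective spray on young radish or cabbage: actives in water diluted from DMSO/acetone/Tween 80, with solvent-only controls. Leaves were challenged after 24 h with a spore suspension, and plants were held at 100% RH, 20 °C for 3 to 4 days.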

[3] = system: Pyrenophora teres; assay: In vivo preventive test on Pyrenophora teres (net blotch on barley); conditions: 240 h, 500 ppm of active ingredient, preventive spray on barley, evaluated 10 days after inoculation, read-out: efficacy
Summary of the method: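 Net blotch spores were sprayed onto barley leaves one day after foliar treatment with water-diluted DMSO/acetone/Tween 80 formulations (solvent-only controls). Plants were kept at 20° C: first 48 hours at 100% relative humidity, then 8 days at 70-80%.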

[4] = system: Colletotrichum lindemuthianum; assay: In vivo preventive test on Colletotrichum lindemuthianum (leaf spot on bean); conditions: 168 h, 500 ppm of active ingredient, preventive spray on bean, evaluated 7 days after inoculation, read-out: efficacy
Summary of the method: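 Young bean plants sprayed with compound in DMSO/acetone/Tween 80 diluted in water; solvent-only controls. Inoculated 24 h later with C. lindemuthianum spore suspension, then kept 24 h at 20 °C/100% RH and 6 days at 20 °C/90% RH.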

[5] = system: Alternaria alternata; assay: Alternaria alternata in vitro cell test; type: cell-based; conditions: 120 h, 20 ppm of active ingredient, liquid culture, 5 days incubation, spectrometric measurement of mycelium growth, read-out: efficacy (inhibition of fungal growth)
Summary of the method: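 Spectrometric readout of mycelial growth after 5-day incubation gauged compound effects on spore germination and growth of A. alternata in liquid medium. Compounds were delivered in DMSO at ≤1% final. Absorbance was compared with untreated controls to give inhibition.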

[6] = system: Septoria tritici; assay: B-9. Septoria tritici in vitro cell test; type: cell-based; conditions: Zymoseptoria tritici, 168 h; 20 ppm of active ingredient; 7 days incubation; liquid culture, absorbance; read-out: efficacy (inhibition of fungal growth)
Protocol: B-9. Septoria tritici In Vitro Cell Test [table] Fungicides were solubilized in DMSO and the solution used to prepare the required range of concentrations. The final concentration of DMSO used in the assay was ≤1%. A spore suspension of S. tritici was prepared and diluted to the desired spore density. Fungicides were evaluated for their ability to inhibit spore germination and mycelium growth in liquid culture assay. The compounds were added in the desired concentration to the culture medium with spores. After 7 days incubation, fungi-toxicity of compounds was determined by spectrometric measurement of mycelium growth. Inhibition of fungal growth was determined by comparing the absorbance values in wells containing the fungicides with the absorbance in control wells without fungicides.

[7] = system: Pyrenophora teres; assay: B-10. Pyrenophora teres in vitro cell test; type: cell-based; conditions: 144 h, 20 ppm of active ingredient, 6 days incubation, liquid culture, absorbance, read-out: efficacy (inhibition of fungal growth)
Summary of the method: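 Liquid-culture assay on a P. teres spore suspension with compounds added to the medium from DMSO solutions, final DMSO ≤1%. Mycelium growth read spectrometrically after 6 days. Inhibition calculated from absorbance against untreated control wells.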

[8] = system: Botrytis cinerea; assay: B-11. Botrytis cinerea in vitro cell test; type: cell-based; conditions: 144 h, 20 ppm of active ingredient, 6 days incubation, liquid culture, absorbance, read-out: efficacy (inhibition of fungal growth)
Summary of the method: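 B. cinerea spores were grown in liquid culture with compound (DMSO ≤1% final). Mycelium growth was measured spectrometrically after 6 days, with inhibition taken as absorbance relative to untreated control wells.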

[9] = system: Botrytis cinerea; assay: In vivo preventive test on Botrytis cinerea (grey mould); conditions: 500 ppm of active ingredient, preventive spray on gherkin or cabbage, evaluated 4 to 5 days after inoculation, read-out: efficacy
Summary of the method: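 Preventive spray on cabbage or gherkin seedlings, with compound formulated in DMSO/acetone/Tween 80 and water-diluted, preceded spore inoculation by 24 hours. Cabbage was held 4 to 5 days at 20° C., 100% relative humidity; gherkin 4 to 5 days at 17° C., 90% relative humidity.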

[10] = system: Sphaerotheca fuliginea; assay: In vivo preventive test on Sphaerotheca fuliginea (powdery mildew on cucurbits); conditions: Podosphaera fuliginea, 192 h; 500 ppm of active ingredient; preventive spray on gherkin; evaluated 8 days after inoculation; read-out: efficacy
Summary of the method: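 This is a preventive spray test on gherkin seedlings, with compound formulated in DMSO/acetone/Tween 80 in water and solvent-only controls. Spore inoculation followed one day after treatment. Incubation lasted 8 days at 20 °C, 70–80% RH.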

[11] = system: Colletotrichum lindemuthianum; assay: B-8. Colletotrichum lindemuthianum in vitro cell test; type: cell-based; conditions: 144 h, 20 ppm of active ingredient, 6 days incubation, liquid culture, absorbance, read-out: efficacy (inhibition of fungal growth)
Summary of the method: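 Liquid-culture germination/growth test: compounds in ≤1% final DMSO were added to spore-containing medium. Fungal growth was quantified spectrophotometrically after 6 days of incubation and expressed as inhibition versus untreated controls.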

SMILES | chromatographic logP [1] | pest or weed control at 500 ppm [2] | pest or weed control at 500 ppm [3] | pest or weed control at 500 ppm [4] | inhibition at 20 ppm [5] | inhibition at 20 ppm [6] | inhibition at 20 ppm [7] | inhibition at 20 ppm [8] | pest or weed control at 500 ppm [9] | pest or weed control at 500 ppm [10] | inhibition at 20 ppm [11]
Cc1ccc(CCNC(=O)c2c(Oc3cccc(C(F)(F)F)c3)cnc3ccccc23)c(C)c1 [I-002] | 4.17 | – | – | – | 90 to 100% | 90 to 100% | – | 90 to 100% | 90 to 100% | 90 to 100% | 90 to 100%
O=C(NCCc1ncc(Cl)cn1)c1c(Oc2cccc(C(F)(F)F)c2)nnc2ccccc12 [I-077] | 2.91 | 90 to 100% | – | 70 to 79% | 90 to 100% | 90 to 100% | 90 to 100% | 90 to 100% | 90 to 100% | – | 90 to 100%
O=C(NCCc1ccc2c(c1)CCO2)c1c(Oc2cccc(C(F)(F)F)c2)nnc2ccccc12 [I-081] | 3.53 | 90 to 100% | – | 90 to 100% | 90 to 100% | 70 to 79% | 90 to 100% | 90 to 100% | 90 to 100% | – | 90 to 100%
O=C(NOCc1ccc(C(F)(F)F)cc1)c1c(Oc2cccc(C(F)(F)F)c2)nnc2ccccc12 [I-089] | 3.42 | 90 to 100% | – | – | 90 to 100% | 80 to 89% | 90 to 100% | 90 to 100% | 70 to 79% | – | 90 to 100%
Cc1ccc(C(F)(F)CNC(=O)c2c(Oc3cccc(C4CC4)c3F)cnc3nccnc23)c(C)c1 [I-099] | 3.71 | 90 to 100% | – | 90 to 100% | 90 to 100% | 80 to 89% | 90 to 100% | 90 to 100% | 90 to 100% | – | 90 to 100%
Cc1ccc(C(F)(F)CNC(=O)c2c(Oc3cccc(C(F)(F)F)c3)nnc3c2CCCC3)c(C)c1 [I-115] | 4.05 | 90 to 100% | 90 to 100% | 90 to 100% | 90 to 100% | 90 to 100% | 90 to 100% | – | 90 to 100% | 90 to 100% | 90 to 100%
O=C(NCC(F)(F)c1ccc(Cl)cc1)c1c(Oc2cccc(C(F)F)c2)nnc2c1CCCC2 [I-120] | 3.37 | – | – | – | 90 to 100% | 80 to 89% | 90 to 100% | 90 to 100% | – | – | 90 to 100%
Cc1ccc(C(F)(F)CNC(=O)c2c(Oc3cccc(C(F)(F)F)c3)nnc3c2COCC3)c(C)c1 [I-122] | 3.7 | 90 to 100% | – | 80 to 89% | 90 to 100% | 90 to 100% | 90 to 100% | 90 to 100% | 90 to 100% | 90 to 100% | 90 to 100%

Further lines, with some results ahead:

chromatographic logP [1] | SMILES | pest or weed control at 500 ppm [2] | pest or weed control at 500 ppm [3] | pest or weed control at 500 ppm [4] | inhibition at 20 ppm [5] | inhibition at 20 ppm [6] | inhibition at 20 ppm [7] | inhibition at 20 ppm [8] | pest or weed control at 500 ppm [9] | pest or weed control at 500 ppm [10] | inhibition at 20 ppm [11]
3.92 | COc1cc([C@@H](F)CNC(=O)c2c(Oc3cccc(C(F)(F)F)c3)nnc3ccccc23)ccc1Cl (racemic) [I-176] | 90 to 100% | 80 to 89% | 70 to 79% | 90 to 100% | 80 to 89% | 90 to 100% | 90 to 100% | – | – | –
3.84 | Cc1ccc(C(F)CNC(=O)c2c(Oc3cccc(C(F)(F)F)c3)nnc3c2CCC3)c(C)c1 (stereo not shown) [I-138] | – | – | – | 90 to 100% | 90 to 100% | 90 to 100% | 90 to 100% | – | – | 90 to 100%
4.34 | Cc1cc(Cl)ccc1C(F)(F)CNC(=O)c1c(Oc2cccc(C3CC3)c2F)nnc2c1CCCC2 [I-147] | 90 to 100% | 90 to 100% | 90 to 100% | 90 to 100% | 90 to 100% | 90 to 100% | – | 90 to 100% | 90 to 100% | 90 to 100%
3.63 | O=C(NCC(F)c1ccc(Cl)cc1Cl)c1c(Oc2cccc(C(F)F)c2)nnc2c1CCCC2 (stereo not shown) [I-177] | – | – | – | 90 to 100% | 90 to 100% | 90 to 100% | 90 to 100% | – | – | 90 to 100%
3.89 | O=C(NCC(F)c1ccc(Cl)cc1Cl)c1c(Oc2cccc(Cl)c2)nnc2c1CCCC2 (stereo not shown) [I-179] | – | – | – | 90 to 100% | 90 to 100% | 90 to 100% | 90 to 100% | – | – | 90 to 100%
3.73 | Cc1ccc(C(F)CNC(=O)c2c(Oc3cccc(Cl)c3)nnc3c2CCCC3)c(C)c1 (stereo not shown) [I-233] | – | – | – | 90 to 100% | 90 to 100% | 90 to 100% | 90 to 100% | – | – | 90 to 100%
3.37 | Cc1ccc(C(F)(F)CNC(=O)c2c(Oc3cccc(Cl)c3)cnc3nccnc23)c(C)c1 [I-234] | 90 to 100% | – | 80 to 89% | 90 to 100% | 90 to 100% | 90 to 100% | 90 to 100% | 90 to 100% | – | 90 to 100%
5 | Cc1ccc(C(F)(F)CNC(=O)c2c(Oc3cccc(C(F)(F)F)c3)nnc3cc(C4CC4)ccc23)cc1C [I-235] | 90 to 100% | 80 to 89% | – | 90 to 100% | 90 to 100% | 90 to 100% | 90 to 100% | 90 to 100% | 90 to 100% | 90 to 100%
3.46 | Cc1ccc(C(F)(F)CNC(=O)c2c(Oc3cccc(Br)c3)cnc3nccnc23)c(C)c1 [I-241, 7-(3-bromophenoxy)-N-[2-(2,4-dimethylphenyl)-2,2-difluoro-ethyl]pyrido[2,3-b]pyrazine-8-carboxamide] | 90 to 100% | – | 90 to 100% | 90 to 100% | 90 to 100% | 90 to 100% | 90 to 100% | 90 to 100% | – | 90 to 100%
5.12 | Cc1ccc(C(F)(F)CNC(=O)c2c(Oc3cccc(C(F)(F)F)c3)nnc3cc(C4CC4)ccc23)c(C)c1 [I-242] | 90 to 100% | 70 to 79% | – | 90 to 100% | 80 to 89% | 90 to 100% | 90 to 100% | 90 to 100% | 80 to 89% | 90 to 100%
